{"source": "patent US12312359B2", "about": "(Vitae Pharmaceuticals, LLC, priority 2016, dated 2025)", "key": {"[1]": {"experiment": "Concentration in water to achieve pH=7", "type": "physicochemical"}, "[2]": {"conditions": "from 5 to 95% RH", "protocol": "Moisture sorption/desorption data were collected on a VTI SGA-100 Vapor Sorption Analyzer. NaCl and PVP were used as calibration standards. Samples were not dried prior to analysis. Sorption and desorption data were collected over a range from 5% to 95% RH at 10% RH increments under a nitrogen purge. The equilibrium criterion used for analysis was less than 0.0100% weight change in 5 minutes with a maximum equilibration time of 3 hours. Data were not corrected for the initial moisture content of the samples."}, "[3]": {"experiment": "Physical stability analysis of sesquifumaric acid salt forms (drying, heating)", "type": "physicochemical"}, "[4]": {"experiment": "Water activity analysis (slurries) of sesquifumaric acid salt forms", "type": "physicochemical", "conditions": "water activity slurry, 0.22 aw (and up)"}}, "data": [{"smiles": "CCN(C(=O)c1cc(F)ccc1Oc1cncnc1N1CC2(CCN(CC3CCC(NS(=O)(=O)CC)CC3)CC2)C1)C(C)C", "note": "(stereo not drawn) [Example 254, N-Ethyl-2-((4-(7-(((1r,4r)-4-(ethylsulfonamido)cyclohexyl)methyl)-2,7-diazaspiro[3.5]nonan-2-yl)pyrimidin-5-yl)oxy)-5-fluoro-N-isopropylbenzamide]", "values": [{"measurement": "Concentration in water to achieve pH=7", "setting": "[1]", "result": 7.6, "unit": "mg/mL"}]}, {"smiles": "CCN(C(=O)c1cc(F)ccc1Oc1cncnc1N1CC2(CCN(CC3CCC(NS(=O)(=O)CC)CC3)CC2)C1)C(C)C.CCN(C(=O)c1cc(F)ccc1Oc1cncnc1N1CC2(CCN(CC3CCC(NS(=O)(=O)CC)CC3)CC2)C1)C(C)C.O=C(O)/C=C/C(=O)O.O=C(O)/C=C/C(=O)O.O=C(O)/C=C/C(=O)O", "note": "(stereo not drawn) [Example 255, N-Ethyl-2-((4-(7-(((1r,4r)-4-(ethylsulfonamido)cyclohexyl)methyl)-2,7-diazaspiro[3.5]nonan-2-yl)pyrimidin-5-yl)oxy)-5-fluoro-N-isopropylbenzamide Sesquifumaric Acid Salt]", "values": [{"measurement": "Concentration in water to achieve pH=7", "setting": "[1]", "result": 224.7, "unit": "mg/mL"}]}, {"smiles": "CCN(C(=O)c1cc(F)ccc1Oc1cncnc1N1CC2(CCN(CC3CCC(NS(=O)(=O)CC)CC3)CC2)C1)C(C)C.CS(=O)(=O)O.CS(=O)(=O)O", "note": "(stereo not drawn) [Example 256, N-Ethyl-2-((4-(7-(((1r,4r)-4-(ethylsulfonamido)cyclohexyl)methyl)-2,7-diazaspiro[3.5]nonan-2-yl)pyrimidin-5-yl)oxy)-5-fluoro-N-isopropylbenzamide Bis-Methanesulfonic Acid Salt]", "values": [{"measurement": "Concentration in water to achieve pH=7", "setting": "[1]", "result": 261, "unit": "mg/mL"}]}, {"smiles": "CCN(C(=O)c1cc(F)ccc1Oc1cncnc1N1CC2(CCN(CC3CCC(NS(=O)(=O)CC)CC3)CC2)C1)C(C)C.Cl.Cl", "note": "(stereo not drawn) [Example 257, N-Ethyl-2-((4-(7-(((1r,4r)-4-(ethylsulfonamido)cyclohexyl)methyl)-2,7-diazaspiro[3.5]nonan-2-yl)pyrimidin-5-yl)oxy)-5-fluoro-N-isopropylbenzamide Bis-Hydrochloric Acid Salt]", "values": [{"measurement": "Concentration in water to achieve pH=7", "setting": "[1]", "result": 317.6, "unit": "mg/mL"}]}, {"smiles": "CC(C)N(C(=O)c1cc(F)ccc1Oc1cncnc1N1CC2(CCN(CC3CCC(NS(C)(=O)=O)CC3)CC2)C1)C(C)C.CC(C)N(C(=O)c1cc(F)ccc1Oc1cncnc1N1CC2(CCN(CC3CCC(NS(C)(=O)=O)CC3)CC2)C1)C(C)C.O.O.O=C(O)/C=C/C(=O)O.O=C(O)/C=C/C(=O)O.O=C(O)/C=C/C(=O)O", "note": "(stereo not drawn) [Form A, 5-fluoro-N,N-diisopropyl-2-((4-(7-(((1r,4r)-4-(methylsulfonamido)cyclohexyl)methyl)-2,7-diazaspiro[3.5]nonan-2-yl)pyrimidin-5-yl)oxy)benzamide sesquifumaric acid salt monohydrate]", "values": [{"measurement": "DVS weight gain", "setting": "[2]", "result": 0.92, "unit": "%"}, {"measurement": "Observation (weight change)", "setting": "[3]; 70° C. vacuum 3 days", "result": "no weight change"}, {"measurement": "Result (solid form after physical stability stress)", "setting": "[3]; 70° C. vacuum 3 days", "result": "Form A + peaks"}, {"measurement": "Result (solid form after physical stability stress)", "setting": "[3]; 95° C., under N2, 2 days", "result": "Form A"}, {"measurement": "Observation (LOD)", "setting": "[3]; 105° C. 3 days", "result": 20, "unit": "% LOD"}, {"measurement": "Result (solid form after physical stability stress)", "setting": "[3]; 105° C. 3 days", "result": "Form A"}, {"measurement": "Observation (weight change)", "setting": "[3]; ambient vacuum 3 days", "result": "no weight change"}, {"measurement": "Result (solid form after physical stability stress)", "setting": "[3]; ambient vacuum 3 days", "result": "Form A"}, {"measurement": "Form change in variable temperature (VT)-XRPD", "setting": "[3]; heating, XRPD pattern at 165° C.", "result": "No form change observed"}, {"measurement": "Changes upon vacuum drying or heating", "setting": "[3]; vacuum drying or heating", "result": "No changes"}]}, {"smiles": "CC(C)N(C(=O)c1cc(F)ccc1Oc1cncnc1N1CC2(CCN(C[C@H]3CC[C@H](NS(C)(=O)=O)CC3)CC2)C1)C(C)C.CC(C)N(C(=O)c1cc(F)ccc1Oc1cncnc1N1CC2(CCN(C[C@H]3CC[C@H](NS(C)(=O)=O)CC3)CC2)C1)C(C)C.O=C(O)/C=C/C(=O)O.O=C(O)/C=C/C(=O)O.O=C(O)/C=C/C(=O)O", "note": "[Form B, 5-fluoro-N,N-diisopropyl-2-((4-(7-(((1r,4r)-4-(methylsulfonamido)cyclohexyl)methyl)-2,7-diazaspiro[3.5]nonan-2-yl)pyrimidin-5-yl)oxy)benzamide sesquifumaric acid salt]", "values": [{"measurement": "Form conversion in water activity slurry", "setting": "[4]", "result": "Converted to Form A"}, {"measurement": "Form change after 45° C. vacuum oven", "setting": "[3]; 45° C. vacuum oven", "result": "converted to Form D"}]}, {"smiles": "CC(C)N(C(=O)c1cc(F)ccc1Oc1cncnc1N1CC2(CCN(C[C@H]3CC[C@H](NS(C)(=O)=O)CC3)CC2)C1)C(C)C.CC(C)N(C(=O)c1cc(F)ccc1Oc1cncnc1N1CC2(CCN(C[C@H]3CC[C@H](NS(C)(=O)=O)CC3)CC2)C1)C(C)C.O=C(O)/C=C/C(=O)O.O=C(O)/C=C/C(=O)O.O=C(O)/C=C/C(=O)O", "note": "[Form D, 5-fluoro-N,N-diisopropyl-2-((4-(7-(((1r,4r)-4-(methylsulfonamido)cyclohexyl)methyl)-2,7-diazaspiro[3.5]nonan-2-yl)pyrimidin-5-yl)oxy)benzamide sesquifumaric acid salt]", "values": [{"measurement": "Form conversion in water activity slurry", "setting": "[4]", "result": "Converted to Form A"}, {"measurement": "Result (solid form after physical stability stress)", "setting": "[3]; 75% RH, 2 days", "result": "Form D"}]}]}
